According to patent publication US20220265775A1, “COMPOSITIONS AND METHODS FOR TREATING PULMONARY EDEMA OR LUNG INFLAMMATION” (priority 2019, published 2022):

Assays:
[1] = Single dose toxicokinetic (TK) study, intratracheal instillation of T3, serum total T3 by chemiluminescence assay; parameters: species or system Sprague-Dawley rats; details: Sprague-Dawley, rat; for AUC(0-t) / Cmax / Cmax_D / Tmax / Vz_F_obs: inhaled or intranasal
Method: Sixty animals (plus two spare animals/sex/group) were anesthetized and dosed via intratracheal instillation of test or control materials for five consecutive days. On the day after the last dose a terminal blood collection was performed for clinical pathology, after which animals were euthanized and a gross examination of all organs was performed by a board certified veterinary pathologist. Select tissues were collected for histopathology. […] Terminal blood collection was performed at two designated time points per animal up to 24 hours after administration for toxicokinetic evaluation. TK animals were euthanized without further evaluation after the final blood collection. All animals were acclimated for a minimum of seven days prior to the dosing procedure. Animals underwent baseline observations and examinations prior to the initiation of the study, and clinical observations and body weight monitoring were performed throughout the in-life portion of the study. All animals received the same dose volume (0.3 mL) of either test or control materials. This maximum feasible dose (MFD) is constrained by the maximum volume that can be safely and reproducibly (over five days) instilled into lungs of rats weighing 250 g to 350 g, which was determined in preliminary toxicology studies to be 0.3 mL. Actual doses delivered are reported as both μg/kg body weight and μg/gm wet lung weight. The toxicity phase animals were 72-135 days of age at the time of initial dosing. Males weighed between 256.52 g and 307.50 g with a mean±standard deviation of 286.74±11.77 g, and females weighed between 250.46 g and 299.01 g with a mean±standard deviation of 260.64±10.34 g. The TK phase animals were 68-144 days of age at the time of initial dosing. Males weighed between 261.23 g and 316.19 g; females weighed between 250.06 g and 280.32 g.
For toxicokinetic experiments, rats were anesthetized with combination of ketamine 40 mg/kg to 200 mg/kg and xylazine 1 mg/kg to 7 mg/kg, intraperitoneally (IP), to effect for dosing procedures, and dosed intratracheally with liothyronine sodium injection as previously described. Depending on the duration of time between dosing and the first or second blood collection time points, animals either had blood collected while still anesthetized under the injectable anesthetics, or if recovered, they were anesthetized with Isoflurane 2-5% and oxygen 1-1.5 L/minute by inhalation anesthesia via nose cone, as needed, to maintain adequate anesthesia depth (assessed by toe pinch). Topical proparicaine anesthetic ophthalmic solution was applied to each eye prior to performing the first blood collection and allowed time to take effect. Collection of serum samples for TK analysis was as described for serum chemistry samples above, and samples were stored at ≤−70° C. until assayed. Animals were euthanized with EUTHASOL (Virbac Corp., Fort Worth, Tex.) ≥86 mg/kg IP to effect following the final blood collection.
For assessment of serum T3 levels samples were sent to the Fairview University of Minnesota Medical Center East Bank Diagnostic Laboratory for analysis, a clinical laboratory certified by CLIA and CAP. Prior to sending serum samples to the analytical lab each sample was diluted 1:4 or 1:8 in normal (0.9%) saline. […] Samples were analyzed by a chemiluminescence assay for total triiodothyronine (T3).
An evaluation of the TK analysis was performed by Dick Brundage, PhD, University of Minnesota. Toxicokinetic parameters were estimated using Phoenix 64 WinNonlin pharmacokinetic software version 7.0. (Pharsight Corp., Mountain View, Calif.). A non-compartmental (NCA) approach consistent with the route of administration was used for parameter estimation. […] Whenever possible, mean concentrations were derived from three animals/gender/time point. Parameters were estimated using sampling times relative to the start of each dose administration. […]

HO-1 = assay: Western blot of total cellular HO-1 protein in RLE-6TN cells under hyperoxia; assay type: cell-based, rat; details: T3 10^−6 M
Method: FIG. 10. HO-1 upregulation is required for T3-increased RLE-6TN cell survival in hyperoxia. […] The cells were then collected for Western Blot analysis. (B) The cells were incubated in 21% O2 and 5% CO2 for 72 hours in the present of HO-1 inhibitor Tin Protoporphyrin IX (10^−6M). […] Cell viability is assessed with trypan blue. The number of viable cells under specific conditions is presented as a percentage of the cell number related to hyperoxia alone. Data are mean±s.d. of three independent experiments with *=P<0.05; **=P<0.01.
(§1) The cells were lysed in lysis buffer containing 20 mM Tris HCl (pH 7.5), 150 mM NaCl, 1 mM EDTA, 1 mM EGTA, 1% (vol/vol) Triton X-100 with protease inhibitors (1 mM PMSF, 2 μg/ml pepstatin, and 10 μg/ml each of aprotinin and leupeptin), and phosphatase inhibitors (2.5 mM sodium pyrophosphate, 1 mM β-glycerophosphate, and 1 mM Na3VO4). The lysate was drawn 10 times through a 25-gauge needle on ice for further lysis and then was centrifuged at 13,000 rpm for 15 minutes at 4° C. The supernatant was collected, and the protein concentrations were determined by use of the BCA protein assay kit (Sigma-Aldrich, St. Louis, Mo.). Immediately after this step, equal amounts of protein were subjected to Western blotting analysis.

Akt = assay: Western blot of Akt phosphorylation in RLE-6TN cells under hyperoxia; assay type: cell-based, rat; details: hyperoxia for 24 hours, T3 added for 20 minutes, vs room air control and hyperoxia alone
Method: FIG. 12. T3-induced increase activation of Akt by phosphorylation. (A) T3 augmented phosphorylation of Akt (p-Akt). […] (C) The PI3K inhibitor wortmannin blocked the T3-induced increase in total cellular amount of HO-1 protein.
as §1

[2] = test system: hyperoxia-induced lung injury; assay: Wet-dry lung weight ratio in hyperoxia-exposed rats; assay type: in vivo, Sprague Dawley rats; details: 60 hours of hyperoxia (O2 with T3), intraperitoneal T3 12.5 μg/kg body weight each 12 hours, O2 alone 6.61±0.604, p=0.0495
From the text: All experimental protocols for animal treatments were approved by the University of Minnesota Institutional Animal Care and Use Committee. […] The room-air control rats were kept in the University animal housing facility. At the end of hyperoxic exposure, rats were sacrificed by intraperitoneal pentobarbital injection, and the lungs were harvested; the right lobes were allocated for histopathology, measurement of lung tissue myeloperoxidase (MPO) activity and wet-to-dry weight ratio. The left lobes underwent bronchoalveolar lavage (BAL) to determine BAL protein concentrations and differential cell counts.
A portion of the right lung was rinsed briefly in PBS, blotted, and then weighed to obtain the “wet” weight. Lungs then were dried in an oven at 80° C. for seven days to obtain the “dry” weight.

[3] = Preliminary tolerability of intratracheal instillation of liothyronine sodium in rats; assay type: in vivo; details: preliminary studies, pH of >10.0 as supplied commercially
Method: Therefore, the liothyronine sodium and the vehicle were adjusted to neutral pH (6.0-8.0) with sterile 1.0 N HCl (Sigma-Aldrich, St. Louis, Mo.) added aseptically in a biosafety cabinet prior to intratracheal instillation into animals. Using aseptic technique, vials of liothyronine sodium were opened and the entire contents were transferred into sterile 1.5 mL Eppendorf tubes. 80-90 μL of 1.0 N HCl was added to the tube and gently vortexed, and the pH was measured using pH test strips (pH 4.5 to 10.0, Ricca Chemical Co., Arlington, Tex.). Additional HCl was titrated in gradually, as needed, until the pH was in the desired range. […] This solution was stored at 4° C. and used for up to 26 hours after pH adjustment procedure. […] The vehicle was also adjusted to neutral pH (6.0-8.0) with 1.0 N HCl as described above. Using aseptic technique the vehicle was filter sterilized and aliquoted into 21 sterile disposable tubes (5 mL each) and stored at 4° C., and a new tube was opened for each day of use. Normal Saline (0.9% Sodium Chloride Injection USP, B. Braun Medical, Inc., Bethlehem, Pa.), was stored at room temperature. A new package was opened for each day of use.

With `N[C@@H](Cc1cc(I)c(Oc2ccc(O)c(I)c2)c(I)c1)C(=O)O` [T3, triiodothyronine] the concentration at 15 min ([1]; in vivo, male rats, individual animals, 15 min, single intratracheal dose 2.7 μg (~10.0 μg/kg)) was 2.44 ng/mL, the Cl_F_obs ([1]; female) was 30.10 mL/h and the HL_Lambda_z ([1]; female) was 2.85 h. It also gave an AUC(0-t) ([1]; female) of 64.1 ng·h/mL, a Cmax ([1]; female) of 16.5 ng/mL and a Cmax_D ([1]; female) of 6.12 ng/mL/µg. For the same molecule, the Tmax ([1]; female) was 2 h, the Vz_F_obs ([1]; female) was 123.60 mL and the Cl_F_obs ([1]; male) was 74.29 mL/h. The HL_Lambda_z ([1]; male) was 3.17 h, the AUC(0-t) ([1]; male) was 25.4 ng·h/mL and the Cmax ([1]; male) was 6.6 ng/mL. The Cmax_D ([1]; male) was 2.44 ng/mL/µg, the Tmax ([1]; male) was 1 h and the Vz_F_obs ([1]; male) was 339.44 mL. For the same molecule, the “total cellular protein of HO-1” value (HO-1) was “significantly enhanced total cellular protein of HO-1”, the “phosphorylation of Akt (p-Akt)” value (Akt) was “augmented phosphorylation of Akt at Ser473” and the “wet-to-dry lung weight ratio” value [2] was 5.82±0.197. For the same molecule, the “tolerability of intratracheal instillation” value [3] was “do not tolerate”.
